Results from ChEMBL document CHEMBL5247655, “Simplified Derivatives of Tetrandrine as Potent and Specific P-gp Inhibitors to Reverse Multidrug Resistance in Cancer Chemotherapy” (J Med Chem, 2023).
Activity calls are given as the source filed them. No cut-off for these calls is given here.

Experiments:
ECa-109 cell line [1] = assay: Induction of apoptosis in vincristine resistant human Eca-109 cells assessed as viable cells at 1 uM incubated for 24 hrs by AnnexinV-FITC/PI staining based flow cytometric analysis (reference value: 90.3%); format: functional; details: read-out: Activity
ECa-109 cell line [2] = assay: Induction of apoptosis in vincristine resistant human Eca-109 cells assessed as viable cells at 5 uM incubated for 24 hrs by AnnexinV-FITC/PI staining based flow cytometric analysis (reference value: 90.3%); format: functional; details: read-out: Activity
[3] = Oral bioavailability in Sprague-Dawley rat at 30 mg/kg measured upto 24 hrs by UPLC/MS/MS analysis; format: ADME, organism-based; details: in vivo
[4] = Cytotoxicity against human LX2 cells incubated for 48 hrs by CCK-8 method; format: toxicity, cell-based, LX-2
ECa-109 cell line [5] = assay: Induction of apoptosis in vincristine resistant human Eca-109 cells assessed as late apoptotic cells at 5 uM incubated for 24 hrs in presence of vincristine by AnnexinV-FITC/PI staining based flow cytometric analysis (reference value: 6.01%); format: functional
ECa-109 cell line [6] = assay: Induction of apoptosis in vincristine resistant human Eca-109 cells assessed as late apoptotic cells at 5 uM incubated for 24 hrs by AnnexinV-FITC/PI staining based flow cytometric analysis (reference value: 7.19%); format: functional
ECa-109 cell line [7] = assay: Cytotoxicity against human Eca-109 cells incubated for 48 hrs by CCK-8 method; format: functional, cell-based; details: ECa-109, 48 h
ECa-109 cell line [8] = assay: Synergistic antitumor activity against in vincristine resistant p-gp overexpressing human Eca-109 cells xenografted in nude mouse assessed as increase in apoptosis at 30 mg/kg, IG administered every two days for 21 days in presence of vincristine by TUNEL analysis; format: functional, organism-based; details: time 21.0 day
[9] = Apparent oral clearance in Sprague-Dawley rat at 30 mg/kg, po measured upto 24 hrs by UPLC/MS/MS analysis; format: ADME, organism-based; details: in vivo
ECa-109 cell line [10] = assay: Induction of apoptosis in vincristine resistant human Eca-109 cells assessed as early apoptotic cells at 2.5 uM incubated for 24 hrs in presence of vincristine by AnnexinV-FITC/PI staining based flow cytometric analysis (reference value: 4.43%); format: functional
ECa-109 cell line [11] = assay: Cytotoxicity against vincristine resistant human Eca-109 cells incubated for 48 hrs by CCK-8 method; format: functional, cell-based; details: ECa-109, 48 h
[12] = AUC (0 to t) in Sprague-Dawley rat at 3 mg/kg, iv measured upto 24 hrs by UPLC/MS/MS analysis; format: ADME, organism-based; parameters: time < 24 hrs, dose 3 mg/kg, route iv; details: in vivo
[13] = Tmax in Sprague-Dawley rat at 30 mg/kg, po measured upto 24 hrs by UPLC/MS/MS analysis; format: ADME, organism-based; details: in vivo
[14] = Half life in Sprague-Dawley rat at 30 mg/kg, po measured upto 24 hrs by UPLC/MS/MS analysis; format: ADME, organism-based; details: in vivo
ECa-109 cell line [15] = assay: Induction of apoptosis in vincristine resistant human Eca-109 cells assessed as early apoptotic cells at 1 uM incubated for 24 hrs by AnnexinV-FITC/PI staining based flow cytometric analysis (reference value: 2.30%); format: functional
ECa-109 cell line [16] = assay: Reversal of VCR -resistance in human Eca-109 cells assessed as cell viability at 1 uM incubated for 48 hrs by CCK-8 method (reference value: 6830.0+/-537.0 nM); format: functional, cell-based; details: ECa-109, 48 h
[17] = Toxicity in nude mouse assessed as change in body weight at 30 mg/kg administered every 2 days for 21 days in presence of vincristine; format: organism-based; details: in vivo, 48 h, time 2 day
ECa-109 cell line [18] = assay: Induction of apoptosis in vincristine resistant human Eca-109 cells assessed as late apoptotic cells at 2.5 uM incubated for 24 hrs by AnnexinV-FITC/PI staining based flow cytometric analysis (reference value: 7.19%); format: functional
ECa-109 cell line [19] = assay: Reversal of VCR -resistance in human Eca-109 cells assessed as cell viability at 5 uM incubated for 48 hrs by CCK-8 method (reference value: 6830.0+/-537.0 nM); format: functional, cell-based; details: ECa-109, 48 h
ECa-109 = assay: Downregulation of P-gp expression in vincristine resistant human Eca-109 cells at 2.5 to 10 uM incubated for 24 hrs by Western blot analysis; format: functional, cell-based; details: dose 2.5-10 µM
[20] = biological target: T1, ATP-dependent translocase ABCB1 (Homo sapiens, UniProt P08183); assay: Inhibition of P-gp efflux in vincristine resistant human Eca-109 cells assessed as effect on accumulation of rhodamine123; format: cell-based
T1 sequence (P08183 whole entry): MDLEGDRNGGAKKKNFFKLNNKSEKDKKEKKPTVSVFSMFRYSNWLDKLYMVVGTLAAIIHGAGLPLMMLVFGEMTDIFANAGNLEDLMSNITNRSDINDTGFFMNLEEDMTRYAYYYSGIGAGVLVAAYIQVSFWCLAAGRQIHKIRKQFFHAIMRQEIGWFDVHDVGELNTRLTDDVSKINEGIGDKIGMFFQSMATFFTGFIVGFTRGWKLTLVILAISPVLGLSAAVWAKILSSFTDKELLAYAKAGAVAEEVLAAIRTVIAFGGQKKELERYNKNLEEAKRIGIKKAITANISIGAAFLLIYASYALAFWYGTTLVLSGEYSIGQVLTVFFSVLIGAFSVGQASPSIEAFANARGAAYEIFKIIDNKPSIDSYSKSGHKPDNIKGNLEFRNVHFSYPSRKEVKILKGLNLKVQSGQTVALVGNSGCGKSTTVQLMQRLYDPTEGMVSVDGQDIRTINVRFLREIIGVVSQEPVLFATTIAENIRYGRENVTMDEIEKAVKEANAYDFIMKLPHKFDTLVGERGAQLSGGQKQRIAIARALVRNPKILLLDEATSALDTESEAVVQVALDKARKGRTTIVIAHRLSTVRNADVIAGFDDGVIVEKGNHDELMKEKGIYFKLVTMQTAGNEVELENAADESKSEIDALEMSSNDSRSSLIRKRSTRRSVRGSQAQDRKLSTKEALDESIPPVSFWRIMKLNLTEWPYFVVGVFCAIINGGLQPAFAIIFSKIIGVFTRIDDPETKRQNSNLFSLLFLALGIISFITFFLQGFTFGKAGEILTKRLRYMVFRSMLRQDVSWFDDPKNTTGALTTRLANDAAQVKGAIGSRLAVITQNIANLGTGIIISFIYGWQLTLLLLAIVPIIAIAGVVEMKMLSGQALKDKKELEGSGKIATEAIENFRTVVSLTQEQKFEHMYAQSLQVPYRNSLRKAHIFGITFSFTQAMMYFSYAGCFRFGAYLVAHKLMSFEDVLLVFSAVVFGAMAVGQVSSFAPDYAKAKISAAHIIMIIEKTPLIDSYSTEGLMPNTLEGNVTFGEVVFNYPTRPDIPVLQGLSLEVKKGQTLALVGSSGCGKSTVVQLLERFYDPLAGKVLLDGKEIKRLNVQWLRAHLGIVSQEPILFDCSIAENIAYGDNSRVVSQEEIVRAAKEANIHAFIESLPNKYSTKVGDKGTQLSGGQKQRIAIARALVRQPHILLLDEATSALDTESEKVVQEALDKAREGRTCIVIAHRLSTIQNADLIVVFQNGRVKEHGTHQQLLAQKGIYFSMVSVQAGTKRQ

[21] = biological target: T1, ATP-dependent translocase ABCB1; assay: Inhibition of P-gp efflux in vincristine resistant human Eca-109 cells assessed as increase in rhodamine 123 fluorescence intensity at 30 uM; format: cell-based; details: eca-109, 30 µM, TDE = time-dependent effect, time 0-5 hrs
[22] = biological target: T1, ATP-dependent translocase ABCB1; assay: Inhibition of P-gp efflux in vincristine resistant human Eca-109 cells assessed as increase in intracellular accumulation of rhodamine123 at 1 to 5 uM incubated for 1 hr by flow cytometry analysis; format: cell-based; details: eca-109, 1 h, dose 1-5 µM
[23] = Apparent volume of distribution during terminal phase in Sprague-Dawley rat at 3 mg/kg, iv measured upto 24 hrs by UPLC/MS/MS analysis; format: ADME, organism-based; details: in vivo

bioavailability [3]: 7.65%
CL/F [9]: 186 mL/min/kg
AUC(0-t) at 24 h [12]: 2690 ng·h/mL
Tmax [13]: 0.38 h
half-life [14]: 7.37 h
inhibition (INH) [20]: Active
inhibition (INH) [21]: Tde
inhibition (INH) [22]: Active
Vz/F [23]: 12.84 L/kg
Structure (SMILES): COc1cc2c(cc1OC)C(Cc1ccc(OC)c(OCc3ccccc3)c1)N(C)CC2 (centres undefined)
viability at 1 µM (ECa-109 cell line [1]): 91.6%
viability at 5 µM (ECa-109 cell line [2]): 90.8%
IC50 at 48 h [4]: > 50 µM
Activity (ECa-109 cell line [5]): 9.81%
Activity (ECa-109 cell line [6]): 6.58%
IC50 (ECa-109 cell line [7]): > 100 µM
Activity (ECa-109 cell line [8]): Active
Activity (ECa-109 cell line [10]): 17.8%
IC50 (ECa-109 cell line [11]): > 100 µM
Activity (ECa-109 cell line [15]): 2.07%
IC50 (ECa-109 cell line [16]): 1.87 µM
Activity [17]: Non-Toxic
Activity (ECa-109 cell line [18]): 5.69%
IC50 (ECa-109 cell line [19]): 0.0099 µM
Activity (ECa-109): inactive
